Measured values as given in patent US20200291444A1, “Macrocyclisation Tags” (Oxford University Innovation LTD, priority 2017, published 2020).

Assays:
PCY1 [1] = assay: LC/MS time course of macrocyclisation by PCY1; assay type: biochemical, Saponaria vaccaria; details: 200 μM substrate, 3.6 μM PCY1
Description: (§1) All kinetic measurements (activity tests, progress curves and initial-rate experiments) were performed as discontinuous assays analyzing samples via LC/MS or MALDI (10-mer activity test). Reactions were performed in 20 mM Tris pH 8.5, 100 mM NaCl, 5 mM DTT (for progress curves 0.2 mg mL-1 BSA was included).17 Reactions were performed at 30° C. and at various time points 50 μL samples were quenched with 20 μL of 6% (v/v) TFA. Samples (50 μL) were loaded onto a ZORBAX SBC18, 5 μm, 9.4 mm×50 mm (Agilent) column connected to an Agilent LC-MS instrument (G6130B Single Quad, Agilent Technologies). Reactants were separated from products using a gradient from A (H2O with 0.1% formic acid) to 80% B (acetonitrile), at a rate of 1.5 mL/min for 8.75 min. For data analysis, ion count peaks and UV absorbance peaks were integrated using Agilent ChemStation software. For data analysis involving quantitative mass spec integration, calibration curves with macrocyclic peptide product were performed in triplicate in order to linearly correlate ion counts to cyclic product concentration. Data fitting and plotting was performed with Prism 6.
PCY1 extracted from S. vaccaria seeds has been previously described to have a turnover number of ˜1 h^−1 for PresegA1.^17 The enzyme produced heterologously in E. coli was evaluated by LC/MS-based time course experiments macrocyclizing 200 μM of PresegA1, PresegB1 or PresegF1 with 3.6 μM PCY1. […] We chose to investigate the slowest and fastest substrate by steady-state kinetics using an LC/MS assay and UV280 nm quantification. […] Under the ITC conditions, the measured kcat (0.14±0.01 s^−1) was a factor of three lower than the LC/MS derived values. […] Therefore, we resorted to an LC/MS assay followed by quantification using mass ion counts, relying on a calibration curve employing the macrocyclic peptide product as a standard (FIG. 2b).

PCY1 [2] = assay: LC/MS steady-state kinetics of macrocyclisation by PCY1; assay type: biochemical, Saponaria vaccaria
Description: as §1
PCY1 extracted from S. vaccaria seeds has been previously described to have a turnover number of ˜1 h^−1 for PresegA1.^17 The enzyme produced heterologously in E. coli was evaluated by LC/MS-based time course experiments macrocyclizing 200 μM of PresegA1, PresegB1 or PresegF1 with 3.6 μM PCY1. These substrates were chosen as they produce 6, 5 and 9 residue macrocycles, respectively, show variability in the length of the C-terminal tail sequence, and have a different C-terminal core residue (proline in PresegF1, alanine in the other two) (FIG. 1b). PresegB1 was completely macrocyclized in ˜30 min, PresegA1 in ˜50 min and PresegF1 in >3 h (FIG. 2a). We chose to investigate the slowest and fastest substrate by steady-state kinetics using an LC/MS assay and UV280 nm quantification. […] Under the ITC conditions, the measured kcat (0.14±0.01 s^−1) was a factor of three lower than the LC/MS derived values. […] Therefore, we resorted to an LC/MS assay followed by quantification using mass ion counts, relying on a calibration curve employing the macrocyclic peptide product as a standard (FIG. 2b).

PCY1:S562A = assay: ITC equilibrium binding to PCY1:S562A; parameters: species or system Saponaria vaccaria; details: ITC, 25° C.
PCY1:S562A, sequence (as listed by the source, stated change not applied): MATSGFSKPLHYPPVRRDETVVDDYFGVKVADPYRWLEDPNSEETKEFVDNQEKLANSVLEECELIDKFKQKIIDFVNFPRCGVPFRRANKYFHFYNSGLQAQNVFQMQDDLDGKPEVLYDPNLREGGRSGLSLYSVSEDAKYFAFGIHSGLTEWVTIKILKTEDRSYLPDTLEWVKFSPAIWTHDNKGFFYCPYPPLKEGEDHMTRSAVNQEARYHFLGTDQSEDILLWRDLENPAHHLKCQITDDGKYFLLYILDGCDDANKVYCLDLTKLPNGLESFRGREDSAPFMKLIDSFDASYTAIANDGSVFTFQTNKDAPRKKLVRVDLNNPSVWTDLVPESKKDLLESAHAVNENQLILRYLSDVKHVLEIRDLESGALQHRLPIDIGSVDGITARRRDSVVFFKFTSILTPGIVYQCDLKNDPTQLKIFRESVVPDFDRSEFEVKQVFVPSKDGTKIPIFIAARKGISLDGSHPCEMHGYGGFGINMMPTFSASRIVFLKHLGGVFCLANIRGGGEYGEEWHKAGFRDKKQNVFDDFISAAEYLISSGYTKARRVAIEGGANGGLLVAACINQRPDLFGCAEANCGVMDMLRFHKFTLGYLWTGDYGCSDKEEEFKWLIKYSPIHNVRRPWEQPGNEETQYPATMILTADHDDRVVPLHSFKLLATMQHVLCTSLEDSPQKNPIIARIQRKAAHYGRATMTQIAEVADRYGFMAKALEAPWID
Description: All PCY1 samples were buffer-exchanged or solubilized into buffer F and further diluted in the same batch of buffer F, in order to minimize buffer mismatches. ITC binding experiments were performed using a cell solution containing PCY1:S562A and a titrant solution with each peptide used. […] The measurements were performed at a stir speed of 750 rpm at 25° C. using a reference power of 10 μcal/s, except for A1-NH2 (5 μcal/s). A buffer titration control in which peptide was titrated into buffer was performed for each experiment. Data processing, fitting to a non-linear one-site binding model, and data plotting was performed using MicroCal PEAQ ITC analysis software (Malvern). […] The measurement was performed in buffer at 30° C., at 750 rpm using a reference power of 5 μcal/s.

[3] = tested on: 25mer and 35mer substrates; assay: Activity of GmPOPB mutants with 25mer and 35mer substrates; assay type: biochemical, Galerina marginata; details: 5 μM GmPOPB, 24 h (16 h elsewhere in the source)
Description: Comparison between distinct GmPOPB substrates was performed in 50 mM Tris pH 8.0, 50 mM NaCl, 10 mM DTT with varying concentrations of substrates at room temperature. All reactions were performed in duplicates. […] Reactions were quenched at several time points by adding 50 μL reaction mixture to 20 μL 6% TFA. Reactants were separated from products for quantification by injecting 50 μL of each quenched time point mix onto a ZORBAX SB-C18, 5 μm, 9.4×50 mm (Agilent) column connected to an Agilent LC-MS (G6130B Single Quad, Agilent Technologies). Reactants were separated from products using a gradient from H2O containing 0.1% TFA or 0.1% formic acid and 5% acetonitrile to 50% acetonitrile, at 1.5 ml/min for 8 min. Peaks with ultra violet (UV) absorbance at 220 and 280 nm were integrated, the area of peaks corresponding to reactant and products was used to calculate the percentage of product formed after a correction for differences in the extinction coefficient of each peptide was applied (ε280-25mer=11,000M-1 cm-1, ε220-25mer=46,000M-1 cm-1, ε280-cyclic=5500M-1 cm-1, ε220-cyclic=34,000M-1 cm-1, and ε280-tail=5500M-1 cm-1). The sum of product+substrate was assumed equal to the total initial amount of substrate, product converted from % to concentration. This value was divided by concentration of enzyme present to yield v/Et (min-1). […] For progress curves with the 35mer substrate, measurements were triplicate and quantification relied on ion counts from mass spectrometry. […] Authentic macrocyclic peptide was quantified by UV absorbance. Data showing products formed after 1 and 16 h with truncated peptides were performed twice. […] Kinetic data were fitted to a Michaelis-Menten equation using GraphPad Prism, and values reported are average and standard error of the mean. […]
To study other residues involved in hydrolysis and macrocyclisation, additional mutants H698N, R663A, R663Q, R663K, and W695Δ (deletion) were generated. […] H698N was insoluble and not evaluated. […]

PCY1, sequence (as listed by the source): as the sequence (as listed by the source, stated change not applied) above, with A562S counted along it

For “PresegF1: native linear PCY1 substrate presegetalin F1; produces a 9 residue macrocycle (FSASYSSKPIQTQVSNGMDNASAPV; PresegF1)”, the “time until completely macrocyclized” value (PCY1 [1]) was > 3 h, the “kcat (table head prints kout)” value (PCY1 [2]; LC/MS (ion counts), 30° C.) was 0.12 ± 0.01 s⁻¹ and the Km (PCY1 [2]; LC/MS (ion counts), 30° C., read-out: Km (table head prints Kin)) was 2.4 ± 0.51 µM. For the same molecule, the “processing by PCY1 (in words)” value (PCY1 [2]; steady state kinetics, FIG. 7) was “rapidly processed” and the Kd (PCY1:S562A) was ~200 nM.

B1: S577A: GmPOPB catalytic triad mutant (protein)
chain: MSSVTWAPGNYPSTRRSDHVDTYQSASKGEVPVPDPYQWLEESTDEVDKWTTAQADLAQSYLDQNADIQKLAEKFRASRNYAKFSAPTLLDDGHWYWFYNRGLQSQSVLYRSKEPALPDFSKGDDNVGDVFFDPNVLAADGSAGMVLCKFSPDGKFFAYAVSHLGGDYSTIYVRSTSSPLSQASVAQGVDGRLSDEVKWFKFSTIIWTKDSKGFLYQRYPARERHEGTRSDRNAMMCYHKVGTTQEEDIIVYQDNEHPEWIYGADTSEDGKYLYLYQFKDTSKKNLLWVAELDEDGVKSGIHWRKVVNEYAADYNIITNHGSLVYIKTNLNAPQYKVITIDLSKDEPEIRDFIPEEKDAKLAQVNCANEEYFVAIYKRNVKDEIYLYSKAGVQLTRLAPDFVGAASIANRQKQTHFFLTLSGFNTPGTIARYDFTAPETQRFSILRTTKVNELDPDDFESTQVWYESKDGTKIPMFIVRHKSTKFDGTAAAIQYGYGGFATSADPFFSPIILTFLQTYGAIFAVPSIRGGGEFGEEWHKGGRRETKVNTFDDFIAAAQFLVKNKYAAPGKVAINGAANGGLLVMGSIVRAPEGTFGAAVPEGGVADLLKFHKFTGGQAWISEYGNPSIPEEFDYIYPLSPVHNVRTDKVMPATLITVNIGDGRVVPMHSFKFIATLQHNVPQNPHPLLIKIDKSWLGHGMGKPTDKNVKDAADKWGFIARALGLELKTVE
With B1 the “activity of GmPOPB mutant (in words)” value [3] was “inactive”.

B2: H698A: GmPOPB catalytic triad mutant (protein, UniProt H2E7Q8 1-730, looked up, variant H698A)
Dual function …: MSSVTWAPGNYPSTRRSDHVDTYQSASKGEVPVPDPYQWLEESTDEVDKWTTAQADLAQSYLDQNADIQKLAEKFRASRNYAKFSAPTLLDDGHWYWFYNRGLQSQSVLYRSKEPALPDFSKGDDNVGDVFFDPNVLAADGSAGMVLCKFSPDGKFFAYAVSHLGGDYSTIYVRSTSSPLSQASVAQGVDGRLSDEVKWFKFSTIIWTKDSKGFLYQRYPARERHEGTRSDRNAMMCYHKVGTTQEEDIIVYQDNEHPEWIYGADTSEDGKYLYLYQFKDTSKKNLLWVAELDEDGVKSGIHWRKVVNEYAADYNIITNHGSLVYIKTNLNAPQYKVITIDLSKDEPEIRDFIPEEKDAKLAQVNCANEEYFVAIYKRNVKDEIYLYSKAGVQLTRLAPDFVGAASIANRQKQTHFFLTLSGFNTPGTIARYDFTAPETQRFSILRTTKVNELDPDDFESTQVWYESKDGTKIPMFIVRHKSTKFDGTAAAIQYGYGGFATSADPFFSPIILTFLQTYGAIFAVPSIRGGGEFGEEWHKGGRRETKVNTFDDFIAAAQFLVKNKYAAPGKVAINGASNGGLLVMGSIVRAPEGTFGAAVPEGGVADLLKFHKFTGGQAWISEYGNPSIPEEFDYIYPLSPVHNVRTDKVMPATLITVNIGDGRVVPMHSFKFIATLQHNVPQNPHPLLIKIDKSWLGAGMGKPTDKNVKDAADKWGFIARALGLELKTVE
With B2 the “activity of GmPOPB mutant (in words)” value [3] was “inactive”.

B3: D661A: GmPOPB catalytic triad mutant (protein, UniProt H2E7Q8 1-730, looked up, variant D661A)
Dual function …: MSSVTWAPGNYPSTRRSDHVDTYQSASKGEVPVPDPYQWLEESTDEVDKWTTAQADLAQSYLDQNADIQKLAEKFRASRNYAKFSAPTLLDDGHWYWFYNRGLQSQSVLYRSKEPALPDFSKGDDNVGDVFFDPNVLAADGSAGMVLCKFSPDGKFFAYAVSHLGGDYSTIYVRSTSSPLSQASVAQGVDGRLSDEVKWFKFSTIIWTKDSKGFLYQRYPARERHEGTRSDRNAMMCYHKVGTTQEEDIIVYQDNEHPEWIYGADTSEDGKYLYLYQFKDTSKKNLLWVAELDEDGVKSGIHWRKVVNEYAADYNIITNHGSLVYIKTNLNAPQYKVITIDLSKDEPEIRDFIPEEKDAKLAQVNCANEEYFVAIYKRNVKDEIYLYSKAGVQLTRLAPDFVGAASIANRQKQTHFFLTLSGFNTPGTIARYDFTAPETQRFSILRTTKVNELDPDDFESTQVWYESKDGTKIPMFIVRHKSTKFDGTAAAIQYGYGGFATSADPFFSPIILTFLQTYGAIFAVPSIRGGGEFGEEWHKGGRRETKVNTFDDFIAAAQFLVKNKYAAPGKVAINGASNGGLLVMGSIVRAPEGTFGAAVPEGGVADLLKFHKFTGGQAWISEYGNPSIPEEFDYIYPLSPVHNVRTDKVMPATLITVNIGAGRVVPMHSFKFIATLQHNVPQNPHPLLIKIDKSWLGHGMGKPTDKNVKDAADKWGFIARALGLELKTVE
In the case of B3, the “activity of GmPOPB mutant (in words)” value [3] is reported as “inactive”.
